Assay [1] deals with human EPO production, Hep3B cells. The assay is described as follows: Human EPO production activity in Hep3B cells (EPO-ELISA of culture supernatant). The class given is cell-based. The note with it: for EC50: Homo sapiens, 24 hr incubation, values consisting solely of numbers, read-out: EC50 (μM) in vitro, human EPO production activity. As to the method:
The activity of the test compound on human EPO production was measured using Hep3B (AMC) established from human liver-derived cell line.
Hep3B cells were cultured in Eagle-MEM medium containing 10% fetal bovine serum, and the test compound was diluted with dimethyl sulfoxide (DMSO).
Hep3B cells were cultured in a 96-well plate, and a test compound was added at each concentration 24 hr later. After incubation at 37° C. for 24 hr, the culture supernatant was collected. The concentration of human EPO produced in the culture supernatant was measured using a human EPO-ELISA kit (manufactured by StemCell Technologies, 01630) according to the manufacturer's explanation, and the human EPO production activity (%) of the test compound was calculated based on the maximum value of production under the above conditions and the value without addition of the test compound. […] In these Tables, the values consisting solely of numbers show EC50 (μM) and those containing % show human EPO production activity (%) at […].
(An ELISA detects its analyte on a solid surface through an enzyme-linked reagent.)

For the next assay, the target named is T1, human PHD2 (Homo sapiens, UniProt Q9GZT9).
T1 construct: made in house; host or cells: Sf9 insect cells (baculovirus, pVL1393 vector)
Put plainly: Measurement of human PHD inhibitory activity (TR-FRET, hydroxylation of HIF-1α partial peptide). The class given is biochemical. Particulars: human PHD2 enzyme 1 nM, 25° C. 30 min, values consisting solely of numbers; read-out: IC50 (μM) in vitro, human PHD inhibitory activity. As for the experimental part: Human PHD2 was expressed in insect cell (Sf9 cell). […] The vector and baculovirus were cotransfected into Sf9, and human PHD2 expression baculovirus was isolated in Sf9. By using the virus, human PHD2-expressed cell was prepared. […] The cell lysate was flowed into a column filled with ANTI-FLAG M2 Affinity Gel Freezer Safe (SIGMA), washed, and the N-terminal FLAG-tag-added human PHD2 was eluted and collected.
VBC complex (VHL/Elongin B/Elongin C) was expressed in Escherichia coli (BL21(DE3)). […] After these expression vectors were transfected into Escherichia coli (BL21(DE3)), Escherichia coli was cultured at 37° C. in the medium containing IPTG. The collected Escherichia coli was disrupted by sonication and flowed into a column filled with Ni-NTA superflow (QIAGEN), washed, and the product was eluted and collected. The eluate was flowed into a column filled with Glutathione Sepharose 4B, washed, and the product was eluted and collected. […]
As for human PHD2 enzyme activity, hydroxylation of proline residue contained in the 19 residues of the partial peptide based on the sequence of HIF-1α as a substrate was measured by TR-FRET (Time-Resolved Fluorescence Resonance Energy Transfer) method.
A test compound and a substrate solution were added to a 96-well plate. The reaction was started by addition of a human PHD2 enzyme solution (final concentration 1 nM) to the reaction system. After incubation at 25° C. for 30 min, a stop solution containing EDTA was added, and a VBC complex solution containing europium (Eu) and Xlent was added, and the amount of hydroxylated proline residue was quantified by time-resolved fluorescence spectroscopy. The time-resolved fluorescence in each well was measured, and the human PHD inhibitory activity (%) of the test compound was calculated based on the values of enzyme non-addition well and test compound non-addition well.
(TR-FRET usually uses a lanthanide donor and a delayed reading to cut background.)

Counter-ions that a name gives are not always drawn.

T1 sequence (Q9GZT9 whole entry): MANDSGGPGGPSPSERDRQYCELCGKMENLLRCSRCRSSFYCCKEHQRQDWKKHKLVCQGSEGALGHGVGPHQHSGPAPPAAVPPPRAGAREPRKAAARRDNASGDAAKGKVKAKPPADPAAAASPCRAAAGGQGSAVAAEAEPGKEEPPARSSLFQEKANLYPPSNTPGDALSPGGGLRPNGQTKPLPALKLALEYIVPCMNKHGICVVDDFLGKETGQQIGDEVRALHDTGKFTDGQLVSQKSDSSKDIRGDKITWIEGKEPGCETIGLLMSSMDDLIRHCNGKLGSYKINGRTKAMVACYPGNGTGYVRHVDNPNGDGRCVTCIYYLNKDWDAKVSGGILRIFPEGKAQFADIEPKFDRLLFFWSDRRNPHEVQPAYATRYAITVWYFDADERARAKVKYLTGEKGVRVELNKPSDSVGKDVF

What is called EC50 is the midpoint of the concentration-response curve. One may read the IC50 as the midpoint of a concentration-inhibition curve. `CCC(CC)c1cc(O)c(C(=O)NCC(=O)O)c2ncnn12` [Example 40, {[5-(1-ethylpropyl)-7-hydroxy[1,2,4]triazolo[1,5-a]pyridine-8-carbonyl]amino}acetic acid hydrochloride]: the EC50 in assay [1] worked out at 17.7 µM. The half-inhibitory concentration (IC50) at human PHD2 turned out to be 0.87 µM.

Regarding `O=C(O)CNC(=O)c1c(O)cc(-c2cc(F)cc(Cl)c2)n2ncnc12` [Example 41, {[5-(3-chloro-5-fluorophenyl)-7-hydroxy[1,2,4]triazolo[1,5-a]pyridine-8-carbonyl]amino}acetic acid hydrochloride], in assay [1], the EC50 worked out at 9.1 µM. Moreover, the IC50 at human PHD2 was determined as 0.26 µM.

`O=C(O)CNC(=O)c1c(O)cc(-c2cccc(F)c2)n2ncnc12` [Example 42, {[5-(3-fluorophenyl)-7-hydroxy[1,2,4]triazolo[1,5-a]pyridine-8-carbonyl]amino}acetic acid hydrochloride]: the EC50 in assay [1] worked out at 14.2 µM. The IC50 at human PHD2 is 0.24 µM.

Regarding `CC(C)Cc1cc(O)c(C(=O)NCC(=O)O)c2ncnn12` [Example 43, [(7-hydroxy-5-isobutyl[1,2,4]triazolo[1,5-a]pyridine-8-carbonyl)amino]acetic acid], in assay [1], the concentration giving a half-maximal response (EC50) is 23.6 µM. Also, the IC50 at human PHD2 turned out to be 0.93 µM.

As for `CCC(CC)Cc1cc(O)c(C(=O)NCC(=O)O)c2ncnn12` [Example 45, {[5-(2-ethylbutyl)-7-hydroxy[1,2,4]triazolo[1,5-a]pyridine-8-carbonyl]amino}acetic acid hydrochloride], the EC50 in assay [1] is 9.9 µM. Further, on human PHD2, the 50% inhibitory concentration (IC50) was 0.92 µM.

As to `O=C(O)CNC(=O)c1c(O)cc(-c2cc(Cl)cc(Cl)c2)n2ncnc12` [Example 46, {[5-(3,5-dichlorophenyl)-7-hydroxy[1,2,4]triazolo[1,5-a]pyridine-8-carbonyl]amino}acetic acid hydrochloride], in assay [1], the half-maximal effective concentration (EC50) came out at 4.8 µM. The concentration for half-maximal inhibition (IC50) at human PHD2 came out at 0.29 µM.

Turning to `O=C(O)CNC(=O)c1c(O)cc(CCC2CC2)n2ncnc12` [Example 47, {[5-(2-cyclopropylethyl)-7-hydroxy[1,2,4]triazolo[1,5-a]pyridine-8-carbonyl]amino}acetic acid hydrochloride], the EC50 in assay [1] came to 12 µM. The IC50 on human PHD2 stood at 0.56 µM.

Take `CCC(C)(C)CCc1cc(O)c(C(=O)NCC(=O)O)c2ncnn12` [Example 48, hydrochloride]: in assay [1], the EC50 stood at 4.5 µM. Moreover, the half-inhibitory concentration (IC50) at human PHD2 stood at 0.59 µM.

In the case of `O=C(O)CNC(=O)c1c(O)cc(-c2cc(F)c(F)c(F)c2)n2ncnc12` [Example 49, {[7-hydroxy-5-(3,4,5-trifluorophenyl)[1,2,4]triazolo[1,5-a]pyridine-8-carbonyl]amino}acetic acid hydrochloride], in assay [1], the EC50 came to 11.7 µM. Further, the IC50 on human PHD2 is 0.24 µM.

Take `O=C(O)CNC(=O)c1c(O)cc(-c2ccc(Cl)cc2)n2ncnc12` [Example 50, {[5-(4-chlorophenyl)-7-hydroxy[1,2,4]triazolo[1,5-a]pyridine-8-carbonyl]amino}acetic acid hydrochloride]: in assay [1], the EC50 was 5.6 µM. The IC50 at human PHD2 was 0.18 µM.

In the case of `Cc1cccc(-c2cc(O)c(C(=O)NCC(=O)O)c3ncnn23)c1` [Example 51, [(7-hydroxy-5-(m-tolyl)[1,2,4]triazolo[1,5-a]pyridine-8-carbonyl)amino] acetic acid hydrochloride], the EC50 in assay [1] came out at 9.1 µM. Further, the IC50 on human PHD2 was 0.26 µM.

In the case of `O=C(O)CNC(=O)c1c(O)cc(-c2cc(F)cc(C3CC3)c2)n2ncnc12` [Example 52, {[5-(3-cyclopropyl-5-fluorophenyl)-7-hydroxy[1,2,4]triazolo[1,5-a]pyridine-8-carbonyl]amino} acetic acid hydrochloride], the EC50 in assay [1] worked out at 10.4 µM. For the same compound, the IC50 at human PHD2 is 0.89 µM.

`O=C(O)CNC(=O)c1c(O)cc(CC2CCC2)n2ncnc12` [Example 53, [(5-cyclobutylmethyl-7-hydroxy[1,2,4]triazolo[1,5-a]pyridine-8-carbonyl)amino] acetic acid hydrochloride]: the EC50 in assay [1] is 8.9 µM. Also, at human PHD2, the IC50 came to 0.5 µM.

On to `O=C(O)CNC(=O)c1c(O)cc(CCC2CCC2)n2ncnc12` [Example 54, {[5-(2-cyclobutylethyl)-7-hydroxy[1,2,4]triazolo[1,5-a]pyridine-8-carbonyl]amino} acetic acid hydrochloride], for which the EC50 in assay [1] amounted to 4.5 µM. The IC50 at human PHD2 was 0.44 µM.

As for `O=C(O)CNC(=O)c1c(O)cc(-c2cccc(C(F)(F)F)c2F)n2ncnc12` [Example 55, {[5-(2-fluoro-3-trifluoromethyl-phenyl)-7-hydroxy[1,2,4]triazolo[1,5-a]pyridine-8-carbonyl]amino} acetic acid hydrochloride], in assay [1], the EC50 came out at 8.9 µM. Moreover, on human PHD2, the IC50 came to 0.23 µM.

As to `O=C(O)CNC(=O)c1c(O)cc(-c2cccc(Cl)c2F)n2ncnc12` [Example 56, {[5-(3-chloro-2-fluorophenyl)-7-hydroxy[1,2,4]triazolo[1,5-a]pyridine-8-carbonyl]amino} acetic acid hydrochloride], the EC50 in assay [1] was found to be 8.4 µM. On human PHD2, the IC50 was 0.19 µM.

On to `O=C(O)CNC(=O)c1c(O)cc(-c2ccc(C(F)(F)F)cc2)n2ncnc12` [Example 57, {[7-hydroxy-5-(4-trifluoromethyl-phenyl)[1,2,4]triazolo[1,5-a]pyridine-8-carbonyl]amino} acetic acid hydrochloride], for which the concentration giving a half-maximal response (EC50) in assay [1] was 4.7 µM. Besides, the IC50 at human PHD2 is 0.2 µM.

On to `O=C(O)CNC(=O)c1c(O)cc(C2CCCCCC2)n2ncnc12` [Example 58, [(5-cycloheptyl-7-hydroxy[1,2,4]triazolo[1,5-a]pyridine-8-carbonyl)amino] acetic acid hydrochloride], for which the EC50 in assay [1] came to 4.7 µM. Also, the IC50 on human PHD2 was 0.55 µM.

Consider `O=C(O)CNC(=O)c1c(O)cc(-c2cccc(F)c2F)n2ncnc12` [Example 59, {[5-(2,3-difluorophenyl)-7-hydroxy[1,2,4]triazolo[1,5-a]pyridine-8-carbonyl]amino} acetic acid hydrochloride], for which the “production activity (%) at 30 μM in vitro, human EPO” value in assay [1] (24 hr, at 30 μM, values containing %, relative to maximum production) is recorded as 49%. Moreover, at human PHD2, the IC50 was determined as 0.26 µM.

Turning to `O=C(O)CNC(=O)c1c(O)cc(CCC2CCCC2)n2ncnc12` [Example 60, {[5-(2-cyclopentylethyl)-7-hydroxy[1,2,4]triazolo[1,5-a]pyridine-8-carbonyl]amino} acetic acid hydrochloride], in assay [1], the EC50 was found to be 8.4 µM. The IC50 at human PHD2 is 0.74 µM.

Turning to `O=C(O)CNC(=O)c1c(O)cc(-c2ccccc2F)n2ncnc12` [Example 61, {[5-(2-fluorophenyl)-7-hydroxy[1,2,4]triazolo[1,5-a]pyridine-8-carbonyl]amino} acetic acid hydrochloride], the EC50 in assay [1] is 28.8 µM. Moreover, the concentration for half-maximal inhibition (IC50) at human PHD2 came to 0.22 µM.

For the compound `O=C(O)CNC(=O)c1c(O)cc(-c2ccc(Cl)cc2F)n2ncnc12` [Example 62, {[5-(4-chloro-2-fluorophenyl)-7-hydroxy[1,2,4]triazolo[1,5-a]pyridine-8-carbonyl]amino} acetic acid hydrochloride], the EC50 in assay [1] was 10.1 µM. In addition, the IC50 at human PHD2 was 0.28 µM.

As to `O=C(O)CNC(=O)c1c(O)cc(Cc2ccc(F)cc2)n2ncnc12` [Example 63, acetic acid hydrochloride], the EC50 in assay [1] was 19.7 µM. In addition, on human PHD2, the half-maximal inhibitory concentration (IC50) is 0.36 µM.

The values above are taken from patent publication US8283465B2, “Triazolopyridine compound, and action thereof as prolyl hydroxylase inhibitor or erythropoietin production-inducing agent” (Japan Tobacco Inc., priority 2009, dated 2012).
